pIC50: −log10 of the molar value. Like-named read-outs stand apart in the source and are kept apart here.
Tests used:
[1] = molecular target: benzodiazepine site of the GABA-A receptor; experiment: Benzodiazepine Receptor Binding Assay (inhibition of 3H-flunitrazepam binding); details: read-out: GABAA Receptor Binding IC50
[2] = tested on: metrazol-induced convulsions; experiment: Suppression of Metrazol-Induced Convulsions in Adult Male Mice; assay type: in vivo; details: mouse; for ED50: Mus musculus, ip
[3] = tested on: metrazol-induced convulsions; experiment: as above; assay type: in vivo; details: mouse; for ED50: Mus musculus, po
[4] = tested on: Anxiety in the Adult Male Rat; experiment: Suppression of Anxiety in the Adult Male Rat (rat conflict test); assay type: in vivo, rats; details: rat; for minimal effective dose: Rattus norvegicus
Summary of the method: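 Male rats, 48 h water- and 24 h food-deprived, trained with 200 unpunished licks, tested at expected peak drug activity. Every 20th lick punished by 0.2-s shock over a 3-min session; increase in median shocks versus concurrent vehicle assessed by one-tailed Mann-Whitney test (p<0.05), validated with a positive-control anxiolytic.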

[5] = po, po, read-out: Rat Conflict (MED, mg/kg) po
[6] = ip, ip, read-out: Rat Conflict (MED, mg/kg) ip

Row | SMILES | pIC50 [1] | ED50 [2] [mg/kg] | ED50 [3] [mg/kg] | minimal effective dose [4, 5] [mg/kg] | minimal effective dose [4, 6] [mg/kg] | Mouse Metrazol (ED50, mg/kg) po [3] | Rat Conflict (MED, mg/kg) po ([4]; po) [mg/kg] | Mouse Metrazol (ED50, mg/kg) ip [2] [mg/kg]
1 | COCCN1C2=C(C(=O)NC3CCCCC3)C(=O)CCN2c2ccc(F)cc21 [Compound 110] | 7.72 | ≥ 1 | ≥ 30 | 10 | – | – | – | –
2 | CCOCN1C2=C(C(=O)NC3CC3)C(=O)CCN2c2ccc(F)cc21 [Compound 111] | 8.72 | > 1 | > 30 | > 10 | – | – | – | –
3 | COC(=O)OCCN1C2=C(C(=O)Nc3ccccc3F)C(=O)CCN2c2ccc(F)cc21 [Compound 114, 7-Fluoro-1,2-dihydro-5-[2-(methoxycarbonyloxy)ethyl]-3-oxo-N-(2-fluorophenyl)pyrido[1,2-a]benzimidazole-4-carboxamide] | 9.52 | < 1 | ≤ 3 | 3 | – | – | – | –
4 | CCOCN1C2=C(C(=O)Nc3cc4ccccc4s3)C(=O)CCN2c2ccccc21 [Compound 116] | 7.00 | > 1 | > 30 | > 10 | – | – | – | –
5 | COCCN1C2=C(C(=O)NC3CC3)C(=O)CCN2c2ccc(F)cc21 [Compound 118] | 8.43 | < 1 | ~3 | 10 | – | – | – | –
6 | CCOCN1C2=C(C(=O)Nc3ccc(S(C)(=O)=O)s3)C(=O)CCN2c2ccc(F)cc21 [Compound 120] | 7.45 | > 1 | ~3 | > 10 | – | – | – | –
7 | CCOCCN1C2=C(C(=O)Nc3ccc(S(C)(=O)=O)s3)C(=O)CCN2c2ccc(F)cc21 [Compound 121] | 7.08 | > 1 | > 30 | > 10 | – | – | – | –
8 | CCOCN1C2=C(C(=O)Nc3ccc(F)cc3F)C(=O)CCN2c2ccc(F)cc21 [Compound 123] | 8.92 | < 1 | < 3 | 0.1 | ≤ 0.1 | – | – | –
9 | CCOCN1C2=C(C(=O)Nc3ccsc3)C(=O)CCN2c2ccc(F)cc21 [Compound 124] | 9.01 | < 1 | ~0.2 | ~0.3 | – | – | – | –
10 | CCOCCN1C2=C(C(=O)Nc3sccc3Cl)C(=O)CCN2c2ccc(F)cc21 [Compound 125] | 9.05 | < 1 | > 30 | > 10 | – | – | – | –
11 | CCOCCN1C2=C(C(=O)Nc3cccs3)C(=O)CCN2c2ccc(F)cc21 [Compound 126] | 9.14 | < 1 | ~0.6 | 0.1 | – | – | – | –
12 | CCOCN1C2=C(C(=O)Nc3c(F)cccc3F)C(=O)CCN2c2c1ccc(F)c2F [Compound 127] | 6.23 | ~1 | > 30 | > 10 | – | – | – | –
13 | CCOCN1C2=C(C(=O)Nc3cccs3)C(=O)CCN2c2ccc(F)cc21 [Compound 129] | 8.98 | < 1 | ~0.2 | 3 | – | – | – | –
14 | CCOCCN1C2=C(C(=O)Nc3ccnc(F)c3)C(=O)CCN2c2ccc(F)cc21 [Compound 130] | 8.64 | < 1 | ~0.8 | 1 | – | – | – | –
15 | CCOCCN1C2=C(C(=O)Nc3ccc(C)s3)C(=O)CCN2c2ccc(F)cc21 [Compound 131] | 8.99 | < 1 | ~0.6 | ~1 | – | – | – | –
16 | CCOCN1C2=C(C(=O)Nc3ccc(Cl)s3)C(=O)CCN2c2ccc(F)cc21 [Compound 134] | 8.74 | < 1 | 2 | > 10 | – | – | – | –
17 | COCCN1C2=C(C(=O)Nc3ccc(F)cc3F)C(=O)CCN2c2ccc(F)cc21 [Compound 136] | 8.26 | < 1 | 0.3 | 0.3 | – | – | – | –
18 | CCOCCN1C2=C(C(=O)Nc3ccc(F)cc3F)C(=O)CCN2c2ccc(F)cc21 [Compound 137] | 8.62 | < 1 | 0.15 | 1 | 1 | – | – | –

Row | SMILES | pIC50 [1] | ED50 [2] [mg/kg] | ED50 [3] [mg/kg] | minimal effective dose [4, 5] [mg/kg] | minimal effective dose [4, 6] [mg/kg] | Mouse Metrazol (ED50, mg/kg) po [3] | Rat Conflict (MED, mg/kg) po ([4]; po) [mg/kg] | Mouse Metrazol (ED50, mg/kg) ip [2] [mg/kg]
19 | COCCN1C2=C(C(=O)Nc3sccc3Cl)C(=O)CCN2c2ccc(F)cc21 [Compound 138] | 8.87 | < 1 | 30 | > 10 | – | – | – | –
20 | COCCN1C2=C(C(=O)Nc3cccs3)C(=O)CCN2c2ccc(F)cc21 [Compound 139] | 8.75 | < 1 | ~0.2 | ~1 | – | – | – | –
21 | COCCN1C2=C(C(=O)Nc3nccs3)C(=O)CCN2c2ccc(F)cc21 [Compound 140] | 8.40 | < 1 | – | – | – | 0.3 mg/kg | >10 | –
22 | CCOCCN1C2=C(C(=O)Nc3nccs3)C(=O)CCN2c2ccc(F)cc21 [Compound 141] | 8.17 | < 1 | ~6 | > 3 | – | – | – | –
23 | COCCN1C2=C(C(=O)Nc3ccc(C)s3)C(=O)CCN2c2ccccc21 [Compound 142] | 8.50 | < 1 | 0.7 | ~1 | – | – | – | –
24 | COCCN1C2=C(C(=O)Nc3ccc(C)s3)C(=O)CCN2c2ccc(F)cc21 [Compound 143] | 8.87 | < 1 | 0.7 | < 10 | – | – | – | –
25 | COCCN1C2=C(C(=O)Nc3ccc(Br)s3)C(=O)CCN2c2ccc(F)cc21 [Compound 144] | 8.28 | < 1 | ~10 | > 10 | – | – | – | –
26 | COCCN1C2=C(C(=O)Nc3ccc(Cl)s3)C(=O)CCN2c2ccc(F)cc21 [Compound 145] | 8.69 | < 1 | ~30 | > 10 | – | – | – | –
27 | COCCN1C2=C(C(=O)Nc3ccc(Cl)s3)C(=O)CCN2c2ccccc21 [Compound 146] | 8.68 | < 1 | > 30 | > 10 | – | – | – | –
28 | COCCN1C2=C(C(=O)Nc3ccccc3F)C(=O)CCN2c2ccc(Cl)cc21 [Compound 147] | 8.60 | < 1 | ~5 | > 10 | – | – | – | –
29 | COCCN1C2=C(C(=O)Nc3ccccc3F)C(=O)CCN2c2ccc(C(F)(F)F)cc21 [Compound 148] | 8.70 | < 1 | ~10 | > 10 | – | – | – | –
30 | COCCN1C2=C(C(=O)Nc3ccccc3F)C(=O)CCN2c2ccc(F)c(F)c21 [Compound 149] | 8.97 | < 1 | 3 | > 10 | – | – | – | –
31 | CC(C)OCCN1C2=C(C(=O)Nc3ccccc3F)C(=O)CCN2c2ccc(F)cc21 [Compound 150] | 9.49 | < 1 | 1 | 10 | – | – | – | –
32 | COCCN1C2=C(C(=O)Nc3c(F)cccc3F)C(=O)CCN2c2ccccc21 [Compound 151] | 8.33 | < 1 | ~2 | 10 | – | – | – | –
33 | CCOCCCN1C2=C(C(=O)Nc3ccccc3F)C(=O)CCN2c2ccc(F)cc21 [Compound 152] | 9.55 | < 1 | ~0.3 | 1 | – | – | – | –
34 | COCCN1C2=C(C(=O)Nc3ccccc3F)C(=O)CCN2c2ccccc21 [Compound 153] | 8.89 | < 1 | 1 | ≤ 1 | – | – | – | –
35 | CCOC(CCN1C2=C(C(=O)Nc3ccccc3F)C(=O)CCN2c2ccc(F)cc21)OCC [Compound 154] | 8.16 | < 1 | ~3 | 3 | – | – | – | –
36 | COCCN1C2=C(C(=O)Nc3nccs3)C(=O)CCN2c2ccc(F)cc21 [Compound 155] | 8.21 | – | – | – | – | ca. 1.5 mg/kg | 3 | <1
